Values quoted from earlier work as cited in patent US9014457B2, “Quantifying cell death” (UCL Business PLC, priority 2009, dated 2015).

Tested on: neuronal cells
Conditions: cited from earlier work

## CCCCCCCCCCCCCCCCCCN1C(=CC=CC2=[N+](CCCCCCCCCCCCCCCCCC)c3ccccc3C2(C)C)C(C)(C)c2ccccc21.[O-][Cl+3]([O-])([O-])[O-] [DiI, 1,1′-dioctadecyl-3,3,3′,3′-tetramethylindocarbocyanine perchlorate]
  cell viability, development or basic cellular physiological properties: does not affect
